Test results published in ChEMBL document CHEMBL1201862, “PubChem BioAssay data set” (2004).
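Results reflect a 48-hour exposure of cells in 96-well plates to compound at five concentrations. GI50 is the concentration that inhibits growth by half.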 Active and inactive are the calls of the source. Cut-off read from the data, not from the text of the source: active = GI50 up to about 1.1 µM and inactive = higher.

Columns and labels:
Assay in all cases: NCI anticancer screen, dose series, 48 h
[1] = system: SK-MEL-28
[2] = system: A498
[3] = system: U-251
[4] = system: UACC-62
[5] = system: MDA-N
[6] = system: SNB-75
[7] = system: NCI/ADR-RES
[8] = system: KM12
[9] = system: T47D
[10] = system: SW-620
[11] = system: MDA-MB-231
[12] = system: CAKI-1
[13] = system: A549
[14] = system: SK-MEL-2
[15] = system: NCI-H23
[16] = system: PC-3
[17] = system: SF-268
[18] = system: ACHN
[19] = system: SF-295
[20] = system: MOLT-4
[21] = system: K562
[22] = system: NCI-H522
[23] = system: COLO 205
[24] = system: SNB-19
[25] = system: SR
[26] = system: HOP-62
[27] = system: SF-539
[28] = system: MDA-MB-435
[29] = system: IGROV-1
[30] = system: NCI-H226
[31] = system: TK-10
[32] = system: HCT-15
[33] = system: HCC 2998
[34] = system: Malme-3M
[35] = system: DU-145
[36] = system: UACC-257
[37] = system: SK-OV-3
[38] = system: HT-29
[39] = system: SK-MEL-5
[40] = system: EKVX
[41] = system: M14
[42] = system: NCI-H460
[43] = system: HCT-116
[44] = system: HL-60
[45] = system: OVCAR-4
[46] = system: CCRF-CEM
[47] = system: UO-31
[48] = system: RPMI-8226
[49] = system: Hs-578T
[50] = system: RXF 393
[51] = system: OVCAR-8
[52] = system: MCF7
[53] = system: HOP-92
[54] = system: 786-0
[55] = system: SN12C
[56] = system: OVCAR-5
[57] = system: OVCAR-3
[58] = system: BT-549
[59] = system: LOX IMVI

Measured: GI50

NC(=O)CC(/N=C1\C(=O)OC(C(O)CO)\C1=N/C(CC(N)=O)C(=O)O)C(=O)O (centres undefined)
inactive: [1] > 100 µM | [2] > 100 µM | [3] > 100 µM | [4] > 100 µM | [5] > 100 µM | [6] > 100 µM | [7] > 100 µM | [8] > 100 µM | [9] > 100 µM | [10] > 100 µM | [11] > 100 µM | [12] > 100 µM | [13] > 100 µM | [14] > 100 µM | [15] > 100 µM | [16] > 100 µM | [17] > 100 µM | [18] > 100 µM | [19] > 100 µM | [20] > 100 µM | [21] > 100 µM | [22] > 100 µM | [23] > 100 µM | [24] > 100 µM | [25] > 100 µM | [26] > 100 µM | [27] > 100 µM | [28] > 100 µM | [29] > 100 µM | [30] > 100 µM | [31] > 100 µM | [33] > 100 µM | [34] > 100 µM | [35] > 100 µM | [36] > 100 µM | [37] > 100 µM | [38] > 100 µM | [39] > 100 µM | [40] > 100 µM | [41] > 100 µM | [42] > 100 µM | [43] > 100 µM | [44] > 100 µM | [45] > 100 µM | [46] > 100 µM | [47] > 100 µM | [48] > 100 µM | [49] > 100 µM | [50] > 100 µM | [51] > 100 µM | [52] > 100 µM | [53] > 100 µM | [54] > 100 µM | [55] > 100 µM | [56] > 10 µM
> 100 µM: [32]

CCN(CC)CCCOc1cc2c(cc1OC)C(=O)N1CCC[C@H]1C=N2
41.5 µM: [32]
inactive: [1] 18.1 µM | [2] 29.6 µM | [3] 26.4 µM | [4] 21.4 µM | [7] > 100 µM | [8] 20 µM | [10] 17.2 µM | [11] 24.2 µM | [12] 18.2 µM | [13] > 100 µM | [14] 46 µM | [16] 42.5 µM | [17] 41.4 µM | [18] 29.6 µM | [19] 28.8 µM | [20] 19.5 µM | [21] 37.5 µM | [22] 11.4 µM | [23] 19.8 µM | [24] 49.1 µM | [25] 29.2 µM | [26] 23.3 µM | [27] 42.7 µM | [28] 22.5 µM | [57] 24.2 µM | [30] 24.4 µM | [31] 61.8 µM | [34] 42.5 µM | [35] 35.2 µM | [36] 53.7 µM | [37] 39.7 µM | [38] 17.8 µM | [39] 19.6 µM | [40] 68.4 µM | [41] 30.2 µM | [42] 97.7 µM | [43] 32.4 µM | [58] 26.9 µM | [44] 30.1 µM | [45] 8.38 µM | [46] 33.2 µM | [47] 39.9 µM | [48] 21.1 µM | [49] 71.1 µM | [50] 25.8 µM | [51] 40.8 µM | [52] 43 µM | [53] 24.6 µM | [54] 30.5 µM | [55] 42.3 µM | [56] 49.8 µM | [59] 16.4 µM
